Measured values published in patent publication US7951777B2, “Compositions and methods for treatment of cardiovascular disease” (Vectus Biosystems Limited, priority 2004, dated 2011).
Entries after “also recorded” stand apart in the source; their conditions may differ.

Tests used:
[1] = tested on: WKY rat fed a high salt diet; test: VIP infusion in model of myocardial fibrosis: high salt diet; format: in vivo
Procedure: (§1) Three animal models of myocardial fibrosis were used (animals obtained from Australian Animal Resources, Perth, Western Australia, Australia) • i) WKY rat fed a high salt diet • ii) WKY rat fed a high salt diet and given L-NAME (ω-monomethyl-nitro-L-arginine, Sigma Chemical Co.) 10 mg/kg/day in the drinking water • iii) WKY rats with diabetes induced by streptozotocin injection 60 mg/kg
(§2) In each model the rats were randomised to VIP (H-[…]NH2, (SEQ ID No. 1) obtained from Auspep, Australia) or vehicle control (Haemaccel, Aventis) infusion for 4 weeks via Alzet minipump (n=6-8 each experimental group). The dose of VIP was 5 pmol/kg/min.
(§3) In models i) and ii) 14 week old WKY rats were commenced on high salt diet or high salt diet plus L-NAME. They underwent operative insertion of an Alzet minipump for infusion of VIP or vehicle. After 4 weeks the rats were anaesthetised and the hearts harvested. Myocardial VIP and myocardial fibrosis were quantitated.
(§4) Myocardial VIP concentrations and myocardial fibrosis were quantitated.
(§5) VIP was measured by radioimmunoassay in known manner (see Davis R. E., Shelley S., Macdonald G. J. & Duggan K. A. (1992) The effects of a high sodium diet on the metabolism and secretion of vasoactive intestinal peptide in the rabbit. J. Physiol. 451:17-23. Duggan K. A., Ye V. Z. C., Jones D. M. Davis R. E. & Macdonald G. J. (1995) Effects of Endopeptidase 24.11 blockade on plasma and tissue concentrations of vasoactive intestinal peptide Clin. Sci. 89:267-271). […]

normal heart = details: cited from earlier work
isolated rat heart = details: heart perfused with VIP before ischaemia and reperfusion; cited from earlier work
[2] = tested on: WKY rats with diabetes induced by streptozotocin injection; test: VIP infusion in model of myocardial fibrosis: streptozotocin diabetes; format: in vivo, rat; details: VIP 5 pmol/kg/min for 4 weeks after 8 weeks of diabetes; FIG. 6
Procedure: as §1, §2
In model iii) rats were injected with streptozotocin 60 mg/kg at 14 weeks of age. After 8 weeks the diabetic rats were randomised to VIP infusion (5 pmol/kg/min) (SEQ ID No. 1) or no treatment. VIP was administered as above. […]
as §4, §5

SHR and WKY rats = test: Preliminary four-week VIP infusion in rat models of myocardial fibrosis; format: in vivo; details: VIP 7.2 nmol/kg/day via Alzet mini pump for four weeks, compared to control groups
Text: Further preliminary experiments have been conducted on a number of animal models, which encompass a range of fibrous tissue replacement, varying from mild to moderate to severe. The experiments on the animal models encompassed a variety of aetiologies (alone and in combination) and a range of levels of induced fibrosis. For these experiments two types of rats were used, spontaneously hypertensive rats (SHR) and normotensive control Wistar-Kyoto rats (WKY). The WKY rats were given: 1) low salt diet, 2) high salt diet, or 3) L-NAME (ω-monomethyl-nitro-L-arginine; 10 mg/kg/day) plus high salt diet. The SHR rats were given low or high salt diets. The effect of VIP infusion in diabetic heart disease was also studied in the WKY rate with streptozotocin induced diabetes.
In each treatment group, rats were randomised to VIP (SEQ ID No. 1) or vehicle infusion (n=24 in each group) for four weeks. VIP was administered via Alzet mini pump at a rate of 7.2 nmol/kg/day.
After four weeks, the rats were anaesthetised and the hearts were harvested. Myocardial VIP concentrations and myocardial fibrosis were quantitated.

WKY rats = test: Acute VIP infusion, uptake of VIP by the myocardium; format: in vivo, rat
Procedure: In preliminary studies a series of acute infusion experiments have been conducted in animal models.
Fourteen week old WKY rats were randomised to low salt diet (0.008%), intermediate salt diet (2.2%), high salt diet (4.4%) or high salt diet plus L-NAME (10 mg/kg/day) in the drinking water for 4 weeks (n=16 rats per group). On the day of the experiment the rats were anaesthetised and venous and arterial cannulae inserted. After a one hour rest equilibration period the rats were randomised to vehicle control (Haemaccell, Aventis) or VIP (10 pmol/kg/min) infusion (SEQ ID No. 1) for one hour at an infusion rate of 0.017 ml/min. The hearts were then harvested, myocardial VIP concentrations were measured and myocardial fibrosis quantitated.
The difference between the mean myocardial VIP concentrations after VIP or control infusion is a measure of VIP uptake by the heart.
as §5

[3] = tested on: isolated trabeculae from human hearts; details: atria and ventricles of hearts from previously healthy individuals; cited from earlier work
[4] = tested on: WKY rat fed a high salt diet and given L-NAME; test: VIP infusion in model of myocardial fibrosis: high salt diet plus L-NAME; format: in vivo
Procedure: as §1, §2, §3, §4, §5

[5] = tested on: WKY rats on high salt diet; test: Effect of VIP fragments on myocardial fibrosis; format: in vivo, rat; details: for degree of myocardial fibrosis: 5 pmol/kg/min for 4 weeks via Alzet minipump, compared with vehicle control, Masson Trichrome sections; for effectiveness on myocardial fibrosis relative to VIP: all peptides 5 pmol/kg/min for 4 weeks, FIGS. 8 to 10
Text: To determine whether smaller VIP related peptides had any of the biological activities of the complete VIP molecule, particularly in reducing myocardial fibrosis, the degree of myocardial fibrosis after treatment with VIP(1-12) (SEQ ID No. 2) at 5 pmol/kg/min and VIP (6-28) (SEQ ID No. 3) at 5 pmol/kg/min for 4 weeks via Alzet minipump was compared with the complete VIP (5 pmol/kg/min) (SEQ ID No. 1) and vehicle control. The VIP fragments were purchased from Auspep (Melbourne, Australia).
Briefly, 14 week old WKY rats were commenced on high salt diet as described earlier. They underwent operative insertion of an Alzet minipump for infusion of VIP peptide or vehicle. After 4 weeks the rats were anaesthetised, the hearts harvested and myocardial fibrosis quantitated on Masson Trichrome sections using Image Pro Plus Version 5 (Cybernetics). […] FIGS. 8 to 10 show the results of these studies.

CC[C@H](C)[C@H](NC(=O)[C@H](CO)NC(=O)[C@H](CC(N)=O)NC(=O)[C@H](CC(C)C)NC(=O)[C@H](Cc1ccc(O)cc1)NC(=O)[C@H](CCCCN)NC(=O)[C@H](CCCCN)NC(=O)[C@@H](NC(=O)[C@H](C)NC(=O)[C@H](CCSC)NC(=O)[C@H](CCC(N)=O)NC(=O)[C@H](CCCCN)NC(=O)[C@H](CCCNC(=N)N)NC(=O)[C@H](CC(C)C)NC(=O)[C@H](CCCNC(=N)N)NC(=O)[C@@H](NC(=O)[C@H](Cc1ccc(O)cc1)NC(=O)[C@H](CC(N)=O)NC(=O)[C@H](CC(=O)O)NC(=O)[C@@H](NC(=O)[C@H](Cc1ccccc1)NC(=O)[C@@H](NC(=O)[C@H](C)NC(=O)[C@H](CC(=O)O)NC(=O)[C@H](CO)NC(=O)[C@@H](N)Cc1c[nH]cn1)C(C)C)[C@@H](C)O)[C@@H](C)O)C(C)C)C(=O)N[C@@H](CC(C)C)C(=O)N[C@@H](CC(N)=O)C(N)=O [VIP]
regression of existing myocardial fibrosis ([1]; VIP 5 pmol/kg/min 4 weeks, compared with untreated 14 week old rats, FIG. 4): regression of myocardial fibrosis | myocardial fibrosis index ([1]; VIP 5 pmol/kg/min for 4 weeks via Alzet minipump vs vehicle control, FIG. 2): significantly lower | myocardial content of VIP ([1]; after four week intravenous infusion of VIP or vehicle control, FIG. 7A): clear association between the degree of fibrosis and uptake of exogenous VIP | uptake of injected VIP by the heart (normal heart): not taken up by the normal heart | myocardial function (left ventricular functions, coronary flow, tissue injury) (isolated rat heart): significant improvement of myocardial function | regression of existing myocardial fibrosis [2]: regression of myocardial fibrosis | myocardial fibrosis index (SHR and WKY rats): significantly lower | difference between mean myocardial VIP concentrations after VIP or control infusion (VIP uptake by the heart) (WKY rats; VIP 10 pmol/kg/min for one hour, low, intermediate, high salt diet or high salt diet plus L-NAME, FIG. 1): As fibrosis worsens the amount of VIP taken up by the heart increases; also recorded: increase as the degree of fibrosis increased | uptake of VIP by the heart from the plasma (WKY rats; acute infusion experiments in animal models with differing levels of fibrosis): more avid with increasing degrees of fibrosis; also recorded: the higher the level of fibrosis, the greater the uptake of VIP by the heart | ionotropic effect [3]: direct positive ionotropic effect | regression of existing myocardial fibrosis ([4]; VIP 5 pmol/kg/min 4 weeks, compared with untreated 14 week old rats, FIG. 5): regression of myocardial fibrosis | myocardial fibrosis index ([4]; VIP 5 pmol/kg/min for 4 weeks via Alzet minipump vs vehicle control, L-NAME 10 mg/kg/day, FIG. 3): significantly lower | myocardial content of VIP ([4]; after four week intravenous infusion of VIP or vehicle control, FIG. 7B): clear association between the degree of fibrosis and uptake of exogenous VIP

VIP(1-12): active fragment of VIP, residues 1-12, purchased from Auspep (HSDAVFTDNYTR; listed as Homo sapiens)
degree of myocardial fibrosis [5]: decreased the degree of myocardial fibrosis | effectiveness on myocardial fibrosis relative to VIP [5]: approximately ⅓

VIP(6-28): active fragment of VIP, residues 6-28, purchased from Auspep (FTDNYTRLRKQMAVKKYLNSILN; listed as Homo sapiens)
degree of myocardial fibrosis [5]: decreased the degree of myocardial fibrosis | effectiveness on myocardial fibrosis relative to VIP [5]: as effective as VIP
